Laboratory results as given in patent US8071625B2, “Certain chemical entities, compositions, and methods” (Cytokinetics, Inc., priority 2006, dated 2011).

Target: T1, crosslinked smooth muscle actomyosin (chicken gizzard smooth muscle myosin subfragment-1 crosslinked to cardiac or skeletal actin) (Gallus gallus, UniProt P10587)
T1 construct: chicken gizzard smooth muscle myosin subfragment-1; from tissue; host or cells: chicken gizzard
Assay: Lead optimization pyruvate kinase/horseradish peroxidase/pyruvate oxidase-coupled ATPase assay (compound dose response)
Format: biochemical
Conditions: read-out: IC50 Arithmetic Mean
Outline: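 The ATPase used chicken gizzard smooth muscle myosin S1 chemically crosslinked to cardiac or skeletal actin, titrated to a set hydrolysis rate. It was coupled via pyruvate kinase/pyruvate oxidase/HRP in 12 mM K-PIPES pH 7.00 (22 °C) with 0.15 mM ATP, 2 mM MgCl2, 100 mM KCl and 0.1 mM Amplex Red. Fluorescence was read at ex 480/em 615 nm, and IC50 came from a 4-parameter fit.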

Structure (SMILES)	IC50 [µM]
CCc1ccc(NC(=O)OCC2(C(=O)NCc3ccc(Cl)cc3F)CCN(C(=O)CN)CC2)cc1 [[(1-(2-aminoacetyl)-4-{N-[(4-chloro-2-fluorophenyl)methyl]carbamoyl}(4-piperidyl))methoxy]-N-(4-ethylphenyl)carboxamide]	0.262
N#Cc1ccccc1CNC(=O)C1(COC(=O)Nc2ccc(C(F)(F)F)cc2)CCN(C(=O)CN)CC1 [[1-(2-aminoacetyl)-4-({N-[4-(trifluoromethyl)phenyl]carbamoyloxy}methyl)(4-piperidyl)]-N-[(2-cyanophenyl)methyl]carboxamide]	3.24
CCc1ccc(NC(=O)OCC2(C(=O)NCc3ccc(C(F)(F)F)cc3F)CCN(C(=O)CN)CC2)cc1 [{[1-(2-aminoacetyl)-4-(N-{[2-fluoro-4-(trifluoromethyl)phenyl]methyl}carbamoyl)(4-piperidyl)]methoxy}-N-(4-ethylphenyl)carboxamide]	11.8
CCc1ccc(NC(=O)OCC2(C(=O)NCc3cccc(Cl)c3Cl)CCN(C(=O)CNC(=O)OC(C)(C)C)CC2)cc1 [[(4-{N-[(2,3-dichlorophenyl)methyl]carbamoyl}-1-{2-[(tert-butoxy)carbonylamino]acetyl}(4-piperidyl))methoxy]-N-(4-ethylphenyl)carboxamide]	0.313
CCc1ccc(NC(=O)OCC2(C(=O)NCc3ccccn3)CCN(C(=O)CN)CC2)cc1 [({1-(2-aminoacetyl)-4-[N-(2-pyridylmethyl)carbamoyl](4-piperidyl)}methoxy)-N-(4-ethylphenyl)carboxamide]	7.22
CCc1ccc(NC(=O)OCC(C)(CCN)C(=O)NCc2ccccc2Cl)cc1 (stereo not shown) [4-amino-N-[(2-chlorophenyl)methyl]-2-{[N-(4-ethylphenyl)carbamoyloxy]methyl}-2-methylbutanamide]	1.74
CCc1ccc(NC(=O)OC2CCCN(C(=O)NCc3ccccc3Cl)C2)cc1 (stereo not shown) [N-[(2-chlorophenyl)methyl]{3-[N-(4-ethylphenyl)carbamoyloxy]piperidyl}carboxamide]	2.26
CCc1ccc(NC(=O)NCCC(C)(C)C(=O)NCc2ccccc2Cl)cc1 [N-[(2-chlorophenyl)methyl]-4-{[N-(4-ethylphenyl)carbamoyl]amino}-2,2-dimethylbutanamide]	4.73
NCC(=O)N1CCC(COC(=O)Nc2ccc3c(c2)CCC3)(C(=O)NCc2ccccc2Cl)CC1 [{1-(2-aminoacetyl)-4-[(N-indan-5-ylcarbamoyloxy)methyl](4-piperidyl)}-N-[(2-chlorophenyl)methyl]carboxamide]	0.126
CN(CCOC(=O)Nc1ccc2ncccc2c1)C(=O)NCc1ccccc1Cl [{[(2-chlorophenyl)methyl]amino}-N-methyl-N-[2-(N-(6-quinolyl)carbamoyloxy)ethyl]carboxamide]	1.41
CCc1ccc(NC(=O)OCC2(C(=O)NCc3ccc(Cl)cc3)CCN(C(=O)CNC(=O)OC(C)(C)C)CC2)cc1 [[(1-{2-[(tert-butoxy)carbonylamino]acetyl}-4-{N-[(4-chlorophenyl)methyl]carbamoyl}(4-piperidyl))methoxy]-N-(4-ethylphenyl)carboxamide]	14.5
CCc1ccc(NC(=O)OCC2(C(=O)NCc3ccc(F)cc3)CCN(C(=O)CNC(=O)OC(C)(C)C)CC2)cc1 [[(1-{2-[(tert-butoxy)carbonylamino]acetyl}-4-{N-[(4-fluorophenyl)methyl]carbamoyl}(4-piperidyl))methoxy]-N-(4-ethylphenyl)carboxamide]	10.1
CCc1ccc(NC(=O)OCC2(C(=O)NCc3ccccc3C)CCN(C(=O)CNC(=O)OC(C)(C)C)CC2)cc1 [(tert-butoxy)-N-[2-(4-{[N-(4-ethylphenyl)carbamoyloxy]methyl}-4-{N-[(2-methylphenyl)methyl]carbamoyl}piperidyl)-2-oxoethyl]carboxamide]	0.975
CCc1ccc(NC(=O)OCCN(CCCNC(=O)CNC(=O)OC(C)(C)C)C(=O)NCc2ccccc2Cl)cc1 [2-[(tert-butoxy)carbonylamino]-N-[3-({[(2-chlorophenyl)methyl]amino}-N-{2-[N-(4-ethylphenyl)carbamoyloxy]ethyl}carbonylamino)propyl]acetamide]	4.09
CCc1ccc(NC(=O)OCC2(C(=O)NCc3ccc(Cl)cc3C)CCN(C(=O)CN)CC2)cc1 [[(1-(2-aminoacetyl)-4-{N-[(4-chloro-2-methylphenyl)methyl]carbamoyl}(4-piperidyl))methoxy]-N-(4-ethylphenyl)carboxamide]	0.145
CCc1ccc(NC(=O)NC2(C(=O)NCc3ccccc3Cl)CCN(C(=O)OC)C2)cc1 (stereo not shown) [methyl 3-{N-[(2-chlorophenyl)methyl]carbamoyl}-3-{[(4-ethylphenyl)amino]carbonylamino}pyrrolidinecarboxylate]	18.6
CCc1ccc(NC(=O)O[C@H]2CCCN(C(=O)NCc3ccccc3Cl)C2)cc1 [{(3S)-3-[N-(4-ethylphenyl)carbamoyloxy]piperidyl}-N-[(2-chlorophenyl)methyl]carboxamide]	10.2
CCc1ccc(NC(=O)OCC2(C(=O)NCc3ccccc3Cl)CCN(C(=O)[C@H](C)NC(=O)OC(C)(C)C)CC2)cc1 [N-[(1S)-2-(4-{N-[(2-chlorophenyl)methyl]carbamoyl}-4-{[N-(4-ethylphenyl)carbamoyloxy]methyl}piperidyl)-1-methyl-2-oxoethyl](tert-butoxy)carboxamide]	1.51
CN(CCOC(=O)Nc1ccc2ccccc2c1)C(=O)NCc1ccccc1Cl [{[(2-chlorophenyl)methyl]amino}-N-methyl-N-[2-(N-(2-naphthyl)carbamoyloxy)ethyl]carboxamide]	0.03
CCc1ccc(NC(=O)OCC2(C(=O)OC)CCN(C(=O)CN)CC2)cc1 [methyl 1-(2-aminoacetyl)-4-{[N-(4-ethylphenyl)carbamoyloxy]methyl}piperidine-4-carboxylate]	18
CCc1ccc(NC(=O)OCCN(C)C(=O)N(C)Cc2ccccc2Cl)cc1 [{[(2-chlorophenyl)methyl]methylamino}-N-{2-[N-(4-ethylphenyl)carbamoyloxy]ethyl}-N-methylcarboxamide]	2.08
CCc1ccc(NC(=O)OCC2(C(=O)NCc3ccccc3Br)CCN(C(=O)CN)CC2)cc1 [[(1-(2-aminoacetyl)-4-{N-[(2-bromophenyl)methyl]carbamoyl}(4-piperidyl))methoxy]-N-(4-ethylphenyl)carboxamide]	0.146
CCc1ccc(NC(=O)OCC(C)(C)N(C)C(=O)NCc2ccccc2Cl)cc1 [{[(2-chlorophenyl)methyl]amino}-N-{2-[N-(4-ethylphenyl)carbamoyloxy]-tert-butyl}-N-methylcarboxamide]	0.621

Further lines, results first:

IC50 [µM]	Structure (SMILES)
9.21	NCC(=O)N1CCC(COC(=O)Nc2ccccc2)(C(=O)NCc2ccccc2Cl)CC1 [{1-(2-aminoacetyl)-4-[(N-phenylcarbamoyloxy)methyl](4-piperidyl)}-N-[(2-chlorophenyl)methyl]carboxamide]
1.96	Cc1ccc(NC(=O)OCC2(C(=O)NCc3ccccc3Cl)CCOCC2)cc1Cl [(4-{[N-(3-chloro-4-methylphenyl)carbamoyloxy]methyl}(2H-3,4,5,6-tetrahydropyran-4-yl))-N-[(2-chlorophenyl)methyl]carboxamide]
0.697	Cc1ccc(NC(=O)OCC2(C(=O)NCc3ccccc3Cl)CCOCC2)cc1 [N-[(2-chlorophenyl)methyl](4-{[N-(4-methylphenyl)carbamoyloxy]methyl}(2H-3,4,5,6-tetrahydropyran-4-yl))carboxamide]
0.246	CCc1ccc(NC(=O)OCC2(C(=O)NCc3ccccc3Cl)CCN(C(=O)CCCN)CC2)cc1 [(1-(4-aminobutanoyl)-4-{[N-(4-ethylphenyl)carbamoyloxy]methyl}(4-piperidyl))-N-[(2-chlorophenyl)methyl]carboxamide]
0.302	CCc1ccc(NC(=O)OCC2(C(=O)NCc3ccccc3Cl)CCN(C(=O)NC)CC2)cc1 [N-[(2-chlorophenyl)methyl](4-{[N-(4-ethylphenyl)carbamoyloxy]methyl}-1-(N-methylcarbamoyl)(4-piperidyl))carboxamide]
0.474	CCc1ccc(NC(=O)OCC2(C(=O)NCc3ccccc3Cl)CCCN(C(=O)CN)C2)cc1 (stereo not shown) [(1-(2-aminoacetyl)-3-{[N-(4-ethylphenyl)carbamoyloxy]methyl}(3-piperidyl))-N-[(2-chlorophenyl)methyl]carboxamide]
0.275	CCc1ccc(NC(=O)OCC2(C(=O)NCc3ccccc3Cl)CCN(C(=O)C(C)(CO)CO)CC2)cc1 [N-[(2-chlorophenyl)methyl](4-{[N-(4-ethylphenyl)carbamoyloxy]methyl}-1-[3-hydroxy-2-(hydroxymethyl)-2-methylpropanoyl](4-piperidyl))carboxamide]
16.1	NC(=O)c1ccc(NC(=O)OCC2(C(=O)NCc3ccccc3Cl)CCOCC2)cc1 [4-{[(4-{N-[(2-chlorophenyl)methyl]carbamoyl}-2H-3,4,5,6-tetrahydropyran-4-yl)methoxy]carbonylamino}benzamide]
0.641	CCc1ccc(NC(=O)OCC2(C(=O)NCc3ccccc3Cl)CCN(C(=O)C3CC3)CC2)cc1 [N-[(2-chlorophenyl)methyl](1-(cyclopropylcarbonyl)-4-{[N-(4-ethylphenyl)carbamoyloxy]methyl}(4-piperidyl))carboxamide]
0.606	CCc1ccc(NC(=O)OCC2(C(=O)NCc3ccccc3Cl)CCN(C(=O)CCOC)CC2)cc1 [N-[(2-chlorophenyl)methyl](4-{[N-(4-ethylphenyl)carbamoyloxy]methyl}-1-(3-methoxypropanoyl)(4-piperidyl))carboxamide]
0.53	CCc1ccc(NC(=O)OCC2(C(=O)NCc3ccccc3Cl)CCN(C(=O)OC)CC2)cc1 [methyl 4-{N-[(2-chlorophenyl)methyl]carbamoyl}-4-{[N-(4-ethylphenyl)carbamoyloxy]methyl}piperidinecarboxylate]
